Several values for one entry are separate records, joined by “and”; a condition that tells them apart may be missing. Equal values may be shown once. Inconclusive results and toxic doses are left out. No stated cut-off is given here; in the data, active means T/C of 150% or more; inactive means T/C below 125%.
System: L1210 leukemia ip in BDF1 mice, survival T/C
Assay: NCI In Vivo Anticancer Drug Screen. Data for tumor model L1210 Leukemia (intraperitoneal) in B6D2F1 (BDF1) mice
Details: endpoint: mean survival time, higher = longer survival
In short: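 Transplanted-tumor mice were given test agent; controls received vehicle only. Survival readings from the two groups were divided (treated over control).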

[1] = dose: 100.0 mg/kg/injection, schedule: Q01DX009 (ip), vehicle: saline with Tween-80
[2] = dose: 100.0 mg/kg/injection, schedule: Q04DX003 (ip), vehicle: saline with Tween-80
[3] = dose: 200.0 mg/kg/injection, schedule: Q01DX009 (ip), vehicle: saline with Tween-80
[4] = dose: 200.0 mg/kg/injection, schedule: Q04DX003 (ip), vehicle: saline with Tween-80
[5] = dose: 400.0 mg/kg/injection, schedule: Q01DX009 (ip), vehicle: saline with Tween-80
[6] = dose: 400.0 mg/kg/injection, schedule: Q04DX003 (ip), vehicle: saline with Tween-80
[7] = dose: 100.0 mg/kg/injection, schedule: Q01DX001 (ip), vehicle: Klucel (hydroxypropylcellulose) (HPC)
[8] = dose: 200.0 mg/kg/injection, schedule: Q01DX001 (ip), vehicle: Klucel (hydroxypropylcellulose) (HPC)
[9] = dose: 400.0 mg/kg/injection, schedule: Q01DX001 (ip), vehicle: Klucel (hydroxypropylcellulose) (HPC)
[10] = dose: 100.0 mg/kg/injection, schedule: Q01DX001 (ip), vehicle: saline
[11] = dose: 100.0 mg/kg/injection, schedule: Q04DX003 (ip), vehicle: saline
[12] = dose: 200.0 mg/kg/injection, schedule: Q01DX001 (ip), vehicle: saline
[13] = dose: 200.0 mg/kg/injection, schedule: Q04DX003 (ip), vehicle: saline
[14] = dose: 400.0 mg/kg/injection, schedule: Q04DX003 (ip), vehicle: saline
[15] = dose: 25.0 mg/kg/injection, schedule: Q04DX003 (ip), vehicle: saline
[16] = dose: 50.0 mg/kg/injection, schedule: Q04DX003 (ip), vehicle: saline
[17] = dose: 100.0 mg/kg/injection, schedule: Q01DX009 (ip), vehicle: Klucel (hydroxypropylcellulose) (HPC)
[18] = dose: 100.0 mg/kg/injection, schedule: Q04DX003 (ip), vehicle: Klucel (hydroxypropylcellulose) (HPC)
[19] = dose: 200.0 mg/kg/injection, schedule: Q01DX009 (ip), vehicle: Klucel (hydroxypropylcellulose) (HPC)
[20] = dose: 200.0 mg/kg/injection, schedule: Q04DX003 (ip), vehicle: Klucel (hydroxypropylcellulose) (HPC)
[21] = dose: 400.0 mg/kg/injection, schedule: Q01DX009 (ip), vehicle: Klucel (hydroxypropylcellulose) (HPC)
[22] = dose: 400.0 mg/kg/injection, schedule: Q04DX003 (ip), vehicle: Klucel (hydroxypropylcellulose) (HPC)
[23] = dose: 50.0 mg/kg/injection, schedule: Q01DX001 (ip), vehicle: saline

Measured: T/C

CC(=O)NCC(S)c1ccc(Cl)cc1 (stereo not drawn)
inactive: [1] 103 % of control | [2] 112 % of control | [3] 103 % of control | [4] 93 % of control | [5] 103 % of control | [6] 88 % of control

Cc1ccc(-c2ccc(-c3ccc(C)cc3)o2)cc1
inactive: [7] 95 % of control | [8] 102 % of control and 90 % of control | [9] 94 % of control

CC(=N\N=C(N)N)/C(=N/N=C(N)N)c1ccccc1
inactive: dose: 3.75 mg/kg/injection, schedule: Q01DX Z (ip), vehicle: saline 92 % of control | dose: 7.5 mg/kg/injection, schedule: Q01DX Z (ip), vehicle: saline 96 % of control | dose: 15.0 mg/kg/injection, schedule: Q01DX Z (ip), vehicle: saline 95 % of control and 102 % of control | dose: 30.0 mg/kg/injection, schedule: Q01DX Z (ip), vehicle: saline 92 % of control | dose: 240.0 mg/kg/injection, schedule: Q01DX009 (oral), vehicle: saline 88 % of control

COc1ccc(OC(=O)N2C=Cc3ccccc3C2C#N)cc1 (stereo not drawn)
inactive: [10] 93 % of control | [11] 105 % of control | [12] 97 % of control | [13] 97 % of control | dose: 400.0 mg/kg/injection, schedule: Q01DX001 (ip), vehicle: saline 91 % of control | [14] 97 % of control

CCN(CC)CCn1c2ccccc2c2cnccc21
inactive: [15] 100 % of control | [16] 97 % of control

CCOc1ccccc1Cl
inactive: [1] 97 % of control | [3] 102 % of control | [5] 95 % of control

CNC(=S)NN=C(c1ccccc1)c1ccccc1
inactive: [7] 95 % of control | [17] 91 % of control | [18] 93 % of control | [8] 90 % of control | [19] 89 % of control | [20] 87 % of control | [9] 87 % of control | [21] 93 % of control | [22] 96 % of control

CCCCCCCCC1SC1CCCCCCCC(=O)OCCOCCOCC (stereo not drawn)
inactive: [1] 95 % of control | [3] 92 % of control | [5] 95 % of control

Nc1ccc(S(=O)(=O)c2ccc(N)cn2)cc1
inactive: dose: 50.0 mg/kg/injection, schedule: Q04DX002 (ip), vehicle: Klucel (hydroxypropylcellulose) (HPC) 89 % of control | dose: 100.0 mg/kg/injection, schedule: Q04DX002 (ip), vehicle: Klucel (hydroxypropylcellulose) (HPC) 98 % of control and 107 % of control | dose: 200.0 mg/kg/injection, schedule: Q04DX002 (ip), vehicle: Klucel (hydroxypropylcellulose) (HPC) 96 % of control | dose: 400.0 mg/kg/injection, schedule: Q04DX002 (ip), vehicle: Klucel (hydroxypropylcellulose) (HPC) 96 % of control and 102 % of control

CCCC1(CN2c3ccccc3Sc3ccccc32)CCN(CC)C1 (stereo not drawn)
inactive: dose: 9.37 mg/kg/injection, schedule: Q01DX009 (ip), vehicle: saline 101 % of control | dose: 12.5 mg/kg/injection, schedule: Q01DX001 (ip), vehicle: saline 97 % of control and 100 % of control | dose: 12.5 mg/kg/injection, schedule: Q04DX003 (ip), vehicle: saline 103 % of control | dose: 18.75 mg/kg/injection, schedule: Q01DX009 (ip), vehicle: saline 95 % of control | dose: 25.0 mg/kg/injection, schedule: Q01DX001 (ip), vehicle: saline 95 % of control | [15] 103 % of control | dose: 37.5 mg/kg/injection, schedule: Q01DX009 (ip), vehicle: saline 92 % of control | [23] 95 % of control and 87 % of control | [16] 97 % of control | dose: 75.0 mg/kg/injection, schedule: Q04DX003 (ip), vehicle: saline 103 % of control

O=C(O)CCC(C(=O)O)N1C(=O)C2C3CCC(C3)C2C1=O (stereo not drawn)
inactive: dose: 25.0 mg/kg/injection, schedule: Q04DX003 (ip), vehicle: saline with Tween-80 93 % of control | dose: 50.0 mg/kg/injection, schedule: Q04DX003 (ip), vehicle: saline with Tween-80 96 % of control | [2] 93 % of control and 98 % of control | [4] 95 % of control | [6] 98 % of control

CCOC(=O)C1CCNC(=O)C1=O (stereo not drawn)
inactive: [23] 104 % of control | [10] 101 % of control | [12] 97 % of control

O=C(/C=C(\C(=O)c1ccccc1)c1ccccc1)c1ccccc1
inactive: dose: 50.0 mg/kg/injection, schedule: Q04DX003 (ip), vehicle: Klucel (hydroxypropylcellulose) (HPC) 95 % of control | [10] 92 % of control | [17] 95 % of control | [18] 101 % of control | dose: 200.0 mg/kg/injection, schedule: Q01DX001 (ip), vehicle: saline with Tween-80 90 % of control | [12] 95 % of control | [19] 102 % of control | [20] 102 % of control | [21] 98 % of control

CC/C=C(/C)CCC
inactive: [2] 93 % of control | [4] 93 % of control | [6] 98 % of control

O=C(C[P+](c1ccccc1)(c1ccccc1)c1ccccc1)c1ccccc1
inactive: dose: 75.0 mg/kg/injection, schedule: Q01DX001 (ip), vehicle: carboxymethylcellulose (CMC) 92 % of control | [7] 97 % of control | dose: 150.0 mg/kg/injection, schedule: Q01DX001 (ip), vehicle: carboxymethylcellulose (CMC) 97 % of control | dose: 300.0 mg/kg/injection, schedule: Q01DX001 (ip), vehicle: carboxymethylcellulose (CMC) 92 % of control

Nc1ccc(S(=O)(=O)O)c2cccc(O)c12
inactive: dose: 100.0 mg/kg/injection, schedule: Q04DX002 (ip), vehicle: carboxymethylcellulose (CMC) 103 % of control | [18] 101 % of control | dose: 200.0 mg/kg/injection, schedule: Q04DX002 (ip), vehicle: carboxymethylcellulose (CMC) 107 % of control | [20] 91 % of control | [22] 101 % of control

CC1=CC(C)(C)SC(=S)N1
inactive: dose: 75.0 mg/kg/injection, schedule: Q01DX009 (ip), vehicle: Klucel (hydroxypropylcellulose) (HPC) 98 % of control | [11] 111 % of control | dose: 150.0 mg/kg/injection, schedule: Q01DX009 (ip), vehicle: Klucel (hydroxypropylcellulose) (HPC) 104 % of control | [13] 104 % of control | dose: 300.0 mg/kg/injection, schedule: Q01DX009 (ip), vehicle: Klucel (hydroxypropylcellulose) (HPC) 108 % of control | [14] 96 % of control

OCC(I)CO
inactive: [10] 106 % of control

O=P(NCCCO)(OCc1ccccc1)N(CCCl)CCCl (stereo not drawn)
inactive: dose: 62.5 mg/kg/injection, schedule: Q01DX010 (ip), vehicle: saline 87 % of control | dose: 125.0 mg/kg/injection, schedule: Q01DX010 (ip), vehicle: saline 98 % of control | dose: 250.0 mg/kg/injection, schedule: Q01DX010 (ip), vehicle: saline 90 % of control | dose: 250.0 mg/kg/injection, schedule: Q01DX Z (ip), vehicle: saline 95 % of control | dose: 500.0 mg/kg/injection, schedule: Q01DX Z (ip), vehicle: saline 95 % of control | dose: 750.0 mg/kg/injection, schedule: Q01DX Z (ip), vehicle: saline 118 % of control

Reference: PubChem BioAssay AID248 (DTP/NCI, 2004)
